The text below walks through data of patent US12016864B2, “LOX enzyme inhibiting methods and compositions” (ANOVIA BIOSCIENCES, INC., priority 2021, dated 2024).

The test concerns the target T1, Bovine lysyl oxidase (LOX) (Bos taurus, UniProt P33072).
T1 construct: from tissue; host or cells: adult bovine tendon
T1 sequence (P33072 170-418): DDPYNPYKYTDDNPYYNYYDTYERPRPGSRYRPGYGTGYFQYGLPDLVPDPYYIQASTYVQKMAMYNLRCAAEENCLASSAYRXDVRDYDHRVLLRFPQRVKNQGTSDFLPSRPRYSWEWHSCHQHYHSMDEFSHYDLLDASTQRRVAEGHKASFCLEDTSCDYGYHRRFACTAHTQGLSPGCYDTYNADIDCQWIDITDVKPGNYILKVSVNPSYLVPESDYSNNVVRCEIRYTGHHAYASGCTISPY
Description: LOX inhibition assay, fluorometric (cadaverine / HRP / Amplex Red). It counts as biochemical. The note with it: LOX extracted from bovine tendon; 30 min preincubation at 37° C.; 5 mM cadaverine; read-out: Activity Range LOX. The protocol:
The ability of compounds to inhibit prototypic LOX was determined using a fluorometric assay. This assay measures the activity of lysyl oxidases by coupling the reaction with horseradish peroxidase-catalyzed […]. The activity assay protocol uses cadaverine as substrate that releases hydrogen peroxide upon transformation by prototypic LOX enzyme present in the sample. Hydrogen peroxide was in turn detected using a red fluorescence substrate for HRP-coupled reactions (Amplex Red Enzyme Assays, Thermo Scientific Fisher). This lead to an increase in fluorescence that can be easily detected at Ex/Em=540/590 nm in a fluorescence microplate
Bovine lysyl oxidase (LOX) was extracted by adapting the methodology from [Kagan et al. 1979 and Borel et al. 2001.] from bovine tendon: Frozen adult bovine tendon was placed in room temperature water to defrost, and then membranes were removed and the remaining tissue cut into 1 cm pieces. The material was first passed through a course mesh meat grinder, and this mince was passed through a fine mesh grinder. The mince was homogenized in 10 v/w of buffer (16 mM sodium phosphate buffer pH 7.8, 400 mM NaCl) using a Waring blender. The homogenate was centrifuged at 15,000×g for 15 min at 4° C. After centrifugation, the supernatant was discarded and the pellets resuspended in 10 volumes of the same buffer. The mixture was blended again and centrifuged with the same settings. This time the pellets were blended in 3 volumes of extraction buffer (16 mM sodium phosphate buffer pH 7.8) and left to incubate at 4° C. for 2 h. After this time, the slurry was centrifuged with the same settings as described above. The supernatant was used in an ultrafiltration step to remove large proteins by size exclusion through a 30 kDalton filter (EMD Millipore). The filtrate was mixed with DEAE Sephadex (GE Healthcare), or passed over a MonoQ FPLC column. After two washes, one in 16 mM sodium phosphate buffer pH 7.8, 380 mM NaCl, and another in 16 mM sodium phosphate buffer pH 7.8, the proteins were eluted with 16 mM sodium phosphate pH 7.8, 10 μM CuSO4, and 4 M urea. Fractions containing Lox activity were collected and stored frozen at −70° C.
Final concentration in the LOX assay is shown in Table 6 below and performed in a total volume of […].
7 μl of freshly prepared reaction buffer were delivered to reaction wells. Compounds were resuspended in 100% DMSO at 10 mM and delivered into buffer using acoustic technology (Echo550; nanoliter range). A 2.85× solution of LOX protein in reaction buffer was prepared (“LOX solution”) and 7 μl of LOX solution was added into the reaction wells. Buffer only was added to column 1 for no protein control. Reactions were incubated for 30 minutes at 37° C. A 3.33× mixture of cadaverine, Amplex Red, and HRP (“Substrate/Detection Mix) was prepared and subsequently 6 μL of the mixture was added to each reaction well. Progress of reactions was monitored for 120 minutes at 37° C. using Clariostar plate reader (ex530-12, ems 600-40). For all activity assays, pan-LOX inhibitor CCT365623 (Tang et al, 2017) and LOXL2/LOXL3 inhibitor PAT-1251 (PharmaKea) were included as standards.
The slope of the linear portion of the progress curve was calculated using Clariostar software. Typical analysis interval was between 20-50 min, but varied between experiments. The background subtracted signals (No protein wells were considered as background) were converted to % activity relative to DMSO controls. Data was analyzed using GraphPad Prism 4 with “sigmoidal dose-response (variable slope)”; 4 parameters with Hill Slope. Constraints: Bottom=Constant equal to 0. Top=Must be less than 120.
Consider `NCc1ccnc(S(=O)(=O)C[C@@H]2C[C@H](c3ccccc3)CN2S(=O)(=O)N2CCOCC2)c1` (racemic) [Example 195, Cis-(2-(((1-(Morpholinosulfonyl)-4-phenylpyrrolidin-2-yl)methyl)sulfonyl)pyridin-4-yl)methanamine 2,2,2-trifluoroacetate], for which the IC50 was in the range of 1000 to 30000 nM.

Consider `NCc1ccnc(S(=O)(=O)C[C@@H]2C[C@H](c3ccccc3)CN2S(=O)(=O)N2CCS(=O)(=O)CC2)c1` (racemic) [Example 196, cis-4-((2-(((4-(Aminomethyl)pyridin-2-yl)sulfonyl)methyl)-4-phenylpyrrolidin-1-yl)sulfonyl)thiomorpholine 1,1-dioxide 2,2,2-trifluoroacetate], for which the IC50 is 1000 to 30000 nM.

As for `NCc1ccnc(S(=O)(=O)C[C@H]2C[C@@H](c3ccccc3)CN2S(=O)(=O)N2CCOCC2)c1` (single isomer, unassigned) [Example 195A], the IC50 lay within 1000 to 30000 nM.

As for `NCc1ccnc(S(=O)(=O)C[C@@H]2C[C@H](c3ccccc3)CN2S(=O)(=O)N2CCOCC2)c1` (single isomer, unassigned) [Example 195B], the IC50 was 1000 to 30000 nM.

Regarding `NCc1ccnc(S(=O)(=O)C[C@@H]2C[C@H](c3ccccc3)CN2S(=O)(=O)N2CCS(=O)(=O)CC2)c1` [Example 196A, 4-(((2S,4R)-2-(((4-(aminomethyl)pyridin-2-yl)sulfonyl)methyl)-4-phenylpyrrolidin-1-yl)sulfonyl)thiomorpholine 1,1-dioxide 2,2,2-trifluoroacetate], the IC50 was 500 to 1000 nM.

Take `NCc1ccnc(S(=O)(=O)C[C@H]2C[C@@H](c3ccccc3)CN2S(=O)(=O)N2CCS(=O)(=O)CC2)c1` [Example 196B, 4-(((2R,4S)-2-(((4-(aminomethyl)pyridin-2-yl)sulfonyl)methyl)-4-phenylpyrrolidin-1-yl)sulfonyl)thiomorpholine 1,1-dioxide 2,2,2-trifluoroacetate]: the IC50 lay in the range of 500 to 1000 nM.
